# System: COLO-800;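 note: growth inhibition of COLO-800 cells, read out with a cell viability assay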
# Assay: cells
# Format: functional, cell-based, Homo sapiens
# Details: Homo sapiens, COLO-800
# Description: SANGER: Inhibition of human COLO-800 cell growth in a cell viability assay.
row,Compound,IC50 [µM]
1,COc1cc2ncn(-c3cc(OCc4ccccc4S(C)(=O)=O)c(C#N)s3)c2cc1OC [GSK-319347A],> 5

# System: COLO-829
# Assay: cells
# Format: functional, cell-based, Homo sapiens
# Details: Homo sapiens, COLO-829
# Description: SANGER: Inhibition of human COLO-829 cell growth in a cell viability assay.
row,Compound,IC50 [µM]
1,COc1cc2ncn(-c3cc(OCc4ccccc4S(C)(=O)=O)c(C#N)s3)c2cc1OC [GSK-319347A],> 5

# System: CP66-MEL;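 note: growth inhibition of CP66-MEL cells determined in a cell viability assay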
# Assay: cells
# Format: functional, cell-based, Homo sapiens
# Details: Homo sapiens, CP66-MEL
# Description: SANGER: Inhibition of human CP66-MEL cell growth in a cell viability assay.
row,Compound,IC50 [µM]
1,COc1cc2ncn(-c3cc(OCc4ccccc4S(C)(=O)=O)c(C#N)s3)c2cc1OC [GSK-319347A],> 5

# System: CTV-1;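 note: growth inhibition of the cell line, read out with a cell viability assay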
# Assay: cells
# Format: functional, cell-based, Homo sapiens
# Details: Homo sapiens, CTV-1
# Description: SANGER: Inhibition of human CTV-1 cell growth in a cell viability assay.
row,Compound,IC50 [µM]
1,COc1cc2ncn(-c3cc(OCc4ccccc4S(C)(=O)=O)c(C#N)s3)c2cc1OC [GSK-319347A],> 5

# System: DSH1;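 note: growth inhibition of human DSH1 cells, measured with a cell viability readout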
# Assay: cells
# Format: functional, cell-based, Homo sapiens
# Details: Homo sapiens, DSH1
# Description: SANGER: Inhibition of human DSH1 cell growth in a cell viability assay.
row,Compound,IC50 [µM]
1,COc1cc2ncn(-c3cc(OCc4ccccc4S(C)(=O)=O)c(C#N)s3)c2cc1OC [GSK-319347A],> 5

# System: EC-GI-10
# Assay: cells
# Format: functional, cell-based, Homo sapiens
# Details: Homo sapiens, EC-GI-10
# Description: SANGER: Inhibition of human EC-GI-10 cell growth in a cell viability assay.
row,Compound,IC50 [µM]
1,COc1cc2ncn(-c3cc(OCc4ccccc4S(C)(=O)=O)c(C#N)s3)c2cc1OC [GSK-319347A],> 5

# System: ES1;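 note: growth inhibition of ES1 cells, read out with a cell viability assay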
# Assay: cells
# Format: functional, cell-based, Homo sapiens
# Details: Homo sapiens, ES1
# Description: SANGER: Inhibition of human ES1 cell growth in a cell viability assay.
row,Compound,IC50 [µM]
1,COc1cc2ncn(-c3cc(OCc4ccccc4S(C)(=O)=O)c(C#N)s3)c2cc1OC [GSK-319347A],> 5

# System: ES7;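 note: growth inhibition of cultured human ES7 cells, read out as cell viability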
# Assay: cells
# Format: functional, cell-based, Homo sapiens
# Details: Homo sapiens, ES7
# Description: SANGER: Inhibition of human ES7 cell growth in a cell viability assay.
row,Compound,IC50 [µM]
1,COc1cc2ncn(-c3cc(OCc4ccccc4S(C)(=O)=O)c(C#N)s3)c2cc1OC [GSK-319347A],> 5

# System: EW-18;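 note: growth inhibition of EW-18 cells, read out by a cell viability assay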
# Assay: cells
# Format: functional, cell-based, Homo sapiens
# Details: Homo sapiens, EW-18
# Description: SANGER: Inhibition of human EW-18 cell growth in a cell viability assay.
row,Compound,IC50 [µM]
1,COc1cc2ncn(-c3cc(OCc4ccccc4S(C)(=O)=O)c(C#N)s3)c2cc1OC [GSK-319347A],> 5

# System: EOL1;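 note: growth inhibition of EoL-1 cells, read out by a cell viability assay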
# Assay: cells
# Format: functional, cell-based, Homo sapiens
# Details: Homo sapiens, EOL1
# Description: SANGER: Inhibition of human EoL-1-cell cell growth in a cell viability assay.
row,Compound,IC50 [µM]
1,COc1cc2ncn(-c3cc(OCc4ccccc4S(C)(=O)=O)c(C#N)s3)c2cc1OC [GSK-319347A],> 5

# System: GB-1;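 note: growth of GB-1 cells judged by a viability assay, IC50 marks the concentration inhibiting growth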
# Assay: cells
# Format: functional, cell-based, Homo sapiens
# Details: Homo sapiens, GB-1
# Description: SANGER: Inhibition of human GB-1 cell growth in a cell viability assay.
row,Compound,IC50 [µM]
1,COc1cc2ncn(-c3cc(OCc4ccccc4S(C)(=O)=O)c(C#N)s3)c2cc1OC [GSK-319347A],> 5

# System: GT3TKB;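 note: growth inhibition of the cell line, read out with a cell viability assay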
# Assay: cells
# Format: functional, cell-based, Homo sapiens
# Details: Homo sapiens, GT3TKB
# Description: SANGER: Inhibition of human GT3TKB cell growth in a cell viability assay.
row,Compound,IC50 [µM]
1,COc1cc2ncn(-c3cc(OCc4ccccc4S(C)(=O)=O)c(C#N)s3)c2cc1OC [GSK-319347A],> 5

# System: HDLM-2;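 note: cell viability assay measuring suppression of HDLM-2 proliferation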
# Assay: cells
# Format: functional, cell-based, Homo sapiens
# Details: Homo sapiens, HDLM-2
# Description: SANGER: Inhibition of human HDLM-2 cell growth in a cell viability assay.
row,Compound,IC50 [µM]
1,COc1cc2ncn(-c3cc(OCc4ccccc4S(C)(=O)=O)c(C#N)s3)c2cc1OC [GSK-319347A],> 5

# System: KMOE-2;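 note: growth inhibition of human KMOE-2 cells, read out with a cell viability assay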
# Assay: cells
# Format: functional, cell-based, Homo sapiens
# Details: Homo sapiens, KMOE-2
# Description: SANGER: Inhibition of human KMOE-2 cell growth in a cell viability assay.
row,Compound,IC50 [µM]
1,COc1cc2ncn(-c3cc(OCc4ccccc4S(C)(=O)=O)c(C#N)s3)c2cc1OC [GSK-319347A],> 5

# System: KNS-81-FD;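 note: growth inhibition of KNS-81-FD cells, read out with a cell viability assay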
# Assay: cells
# Format: functional, cell-based, Homo sapiens
# Details: Homo sapiens, KNS-81-FD
# Description: SANGER: Inhibition of human KNS-81-FD cell growth in a cell viability assay.
row,Compound,IC50 [µM]
1,COc1cc2ncn(-c3cc(OCc4ccccc4S(C)(=O)=O)c(C#N)s3)c2cc1OC [GSK-319347A],> 5

# System: LAN-6;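 note: growth inhibition of LAN-6 cells, determined with a cell viability assay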
# Assay: cells
# Format: functional, cell-based, Homo sapiens
# Details: Homo sapiens, LAN-6
# Description: SANGER: Inhibition of human LAN-6 cell growth in a cell viability assay.
row,Compound,IC50 [µM]
1,COc1cc2ncn(-c3cc(OCc4ccccc4S(C)(=O)=O)c(C#N)s3)c2cc1OC [GSK-319347A],> 5

# System: LB1047-RCC;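 note: inhibition of cell growth, determined with a cell viability assay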
# Assay: cells
# Format: functional, cell-based, Homo sapiens
# Details: Homo sapiens, LB1047-RCC
# Description: SANGER: Inhibition of human LB1047-RCC cell growth in a cell viability assay.
row,Compound,IC50 [µM]
1,COc1cc2ncn(-c3cc(OCc4ccccc4S(C)(=O)=O)c(C#N)s3)c2cc1OC [GSK-319347A],> 5

# System: LS-123
# Assay: cells
# Format: functional, cell-based, Homo sapiens
# Details: Homo sapiens, LS-123
# Description: SANGER: Inhibition of human LS-123 cell growth in a cell viability assay.
row,Compound,IC50 [µM]
1,COc1cc2ncn(-c3cc(OCc4ccccc4S(C)(=O)=O)c(C#N)s3)c2cc1OC [GSK-319347A],> 5

# System: LXF-289 cell line
# Assay: cells
# Format: functional, cell-based, Homo sapiens
# Details: Homo sapiens, LXF-289
# Description: SANGER: Inhibition of human LXF-289 cell growth in a cell viability assay.
row,Compound,IC50 [µM]
1,COc1cc2ncn(-c3cc(OCc4ccccc4S(C)(=O)=O)c(C#N)s3)c2cc1OC [GSK-319347A],> 5

# System: MHH-NB-11;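 note: growth inhibition of human MHH-NB-11 cells, read out by a cell viability assay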
# Assay: cells
# Format: functional, cell-based, Homo sapiens
# Details: Homo sapiens, MHH-NB-11
# Description: SANGER: Inhibition of human MHH-NB-11 cell growth in a cell viability assay.
row,Compound,IC50 [µM]
1,COc1cc2ncn(-c3cc(OCc4ccccc4S(C)(=O)=O)c(C#N)s3)c2cc1OC [GSK-319347A],> 5

# System: MHH-PREB-1;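 note: cell viability assay measuring inhibition of proliferation of human MHH-PREB-1 cells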
# Assay: cells
# Format: functional, cell-based, Homo sapiens
# Details: Homo sapiens, MHH-PREB-1
# Description: SANGER: Inhibition of human MHH-PREB-1 cell growth in a cell viability assay.
row,Compound,IC50 [µM]
1,COc1cc2ncn(-c3cc(OCc4ccccc4S(C)(=O)=O)c(C#N)s3)c2cc1OC [GSK-319347A],> 5

# System: ML-2;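 note: growth inhibition of ML-2 cells, measured with a cell viability readout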
# Assay: cells
# Format: functional, cell-based, Homo sapiens
# Details: Homo sapiens, ML-2
# Description: SANGER: Inhibition of human ML-2 cell growth in a cell viability assay.
row,Compound,IC50 [µM]
1,COc1cc2ncn(-c3cc(OCc4ccccc4S(C)(=O)=O)c(C#N)s3)c2cc1OC [GSK-319347A],> 5

# System: NB69;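 note: growth inhibition of NB69 cells, determined by a cell viability assay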
# Assay: cells
# Format: functional, cell-based, Homo sapiens
# Details: Homo sapiens, NB69
# Description: SANGER: Inhibition of human NB69 cell growth in a cell viability assay.
row,Compound,IC50 [µM]
1,COc1cc2ncn(-c3cc(OCc4ccccc4S(C)(=O)=O)c(C#N)s3)c2cc1OC [GSK-319347A],> 5

# System: NCI-H1648;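 note: cell viability assay measuring inhibition of NCI-H1648 cell growth, from the Sanger screening data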
# Assay: cells
# Format: functional, cell-based, Homo sapiens
# Details: Homo sapiens, NCI-H1648
# Description: SANGER: Inhibition of human NCI-H1648 cell growth in a cell viability assay.
row,Compound,IC50 [µM]
1,COc1cc2ncn(-c3cc(OCc4ccccc4S(C)(=O)=O)c(C#N)s3)c2cc1OC [GSK-319347A],> 5

# System: NCI-H510A;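 note: growth inhibition of NCI-H510A cells, read out with a cell viability assay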
# Assay: cells
# Format: functional, cell-based, Homo sapiens
# Details: Homo sapiens, NCI-H510A
# Description: SANGER: Inhibition of human NCI-H510A cell growth in a cell viability assay.
row,Compound,IC50 [µM]
1,COc1cc2ncn(-c3cc(OCc4ccccc4S(C)(=O)=O)c(C#N)s3)c2cc1OC [GSK-319347A],> 5

# System: SNU1;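 note: growth inhibition of human NCI-SNU-1 cells, measured with a cell viability assay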
# Assay: cells
# Format: functional, cell-based, Homo sapiens
# Details: Homo sapiens, SNU1
# Description: SANGER: Inhibition of human NCI-SNU-1 cell growth in a cell viability assay.
row,Compound,IC50 [µM]
1,COc1cc2ncn(-c3cc(OCc4ccccc4S(C)(=O)=O)c(C#N)s3)c2cc1OC [GSK-319347A],> 5

# System: NKM-1;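 note: growth inhibition of NKM-1 cells, read out with a cell viability assay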
# Assay: cells
# Format: functional, cell-based, Homo sapiens
# Details: Homo sapiens, NKM-1
# Description: SANGER: Inhibition of human NKM-1 cell growth in a cell viability assay.
row,Compound,IC50 [µM]
1,COc1cc2ncn(-c3cc(OCc4ccccc4S(C)(=O)=O)c(C#N)s3)c2cc1OC [GSK-319347A],> 5

# System: ONS-76;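 note: growth inhibition of human ONS-76 cells, read out with a cell viability assay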
# Assay: cells
# Format: functional, cell-based, Homo sapiens
# Details: Homo sapiens, ONS-76
# Description: SANGER: Inhibition of human ONS-76 cell growth in a cell viability assay.
row,Compound,IC50 [µM]
1,COc1cc2ncn(-c3cc(OCc4ccccc4S(C)(=O)=O)c(C#N)s3)c2cc1OC [GSK-319347A],> 5

# System: RPMI-8866
# Assay: cells
# Format: functional, cell-based, Homo sapiens
# Details: Homo sapiens, RPMI-8866
# Description: SANGER: Inhibition of human RPMI-8866 cell growth in a cell viability assay.
row,Compound,IC50 [µM]
1,COc1cc2ncn(-c3cc(OCc4ccccc4S(C)(=O)=O)c(C#N)s3)c2cc1OC [GSK-319347A],> 5

# System: SCC-15;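 note: growth inhibition of SCC-15 cells, read out with a cell viability assay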
# Assay: cells
# Format: functional, cell-based, Homo sapiens
# Details: Homo sapiens, SCC-15
# Description: SANGER: Inhibition of human SCC-15 cell growth in a cell viability assay.
row,Compound,IC50 [µM]
1,COc1cc2ncn(-c3cc(OCc4ccccc4S(C)(=O)=O)c(C#N)s3)c2cc1OC [GSK-319347A],> 5

# System: SF-126;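 note: growth inhibition of human SF126 cells, read out with a cell viability assay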
# Assay: cells
# Format: functional, cell-based, Homo sapiens
# Details: Homo sapiens, SF-126
# Description: SANGER: Inhibition of human SF126 cell growth in a cell viability assay.
row,Compound,IC50 [µM]
1,COc1cc2ncn(-c3cc(OCc4ccccc4S(C)(=O)=O)c(C#N)s3)c2cc1OC [GSK-319347A],> 5

# System: SK-UT-1;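 note: growth inhibition of SK-UT-1 cells, measured by a cell viability assay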
# Assay: cells
# Format: functional, cell-based, Homo sapiens
# Details: Homo sapiens, SK-UT-1
# Description: SANGER: Inhibition of human SK-UT-1 cell growth in a cell viability assay.
row,Compound,IC50 [µM]
1,COc1cc2ncn(-c3cc(OCc4ccccc4S(C)(=O)=O)c(C#N)s3)c2cc1OC [GSK-319347A],> 5

# System: SNB-75;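 note: cell viability assay measuring growth inhibition of human SNB-75 cells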
# Assay: cells
# Format: functional, cell-based, Homo sapiens
# Details: Homo sapiens, SNB-75
# Description: SANGER: Inhibition of human SNB75 cell growth in a cell viability assay.
row,Compound,IC50 [µM]
1,COc1cc2ncn(-c3cc(OCc4ccccc4S(C)(=O)=O)c(C#N)s3)c2cc1OC [GSK-319347A],> 5

# System: SW872;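 note: growth inhibition of SW872 cells, read out by a viability assay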
# Assay: cells
# Format: functional, cell-based, Homo sapiens
# Details: Homo sapiens, SW872
# Description: SANGER: Inhibition of human SW872 cell growth in a cell viability assay.
row,Compound,IC50 [µM]
1,COc1cc2ncn(-c3cc(OCc4ccccc4S(C)(=O)=O)c(C#N)s3)c2cc1OC [GSK-319347A],> 5

# System: 697
# Assay: cells
# Format: functional, cell-based, Homo sapiens
# Details: Homo sapiens
# Description: SANGER: Inhibition of human 697 cell growth in a cell viability assay.
row,Compound,IC50 [µM]
1,COc1cc2ncn(-c3cc(OCc4ccccc4S(C)(=O)=O)c(C#N)s3)c2cc1OC [GSK-319347A],> 5

# System: A253 cell line;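 note: growth inhibition of A253 cells, read out with a cell viability assay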
# Assay: cells
# Format: functional, cell-based, Homo sapiens
# Details: Homo sapiens, A253
# Description: SANGER: Inhibition of human A253 cell growth in a cell viability assay.
row,Compound,IC50 [µM]
1,COc1cc2ncn(-c3cc(OCc4ccccc4S(C)(=O)=O)c(C#N)s3)c2cc1OC [GSK-319347A],> 5

# System: BB49-HNC;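 note: cell viability assay read-out, reported as inhibition of BB49-HNC cell growth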
# Assay: cells
# Format: functional, cell-based, Homo sapiens
# Details: Homo sapiens, BB49-HNC
# Description: SANGER: Inhibition of human BB49-HNC cell growth in a cell viability assay.
row,Compound,IC50 [µM]
1,COc1cc2ncn(-c3cc(OCc4ccccc4S(C)(=O)=O)c(C#N)s3)c2cc1OC [GSK-319347A],> 5

# System: TE-12;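 note: growth inhibition of TE-12 cells, read out by a cell viability assay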
# Assay: cells
# Format: functional, cell-based, Homo sapiens
# Details: Homo sapiens, TE-12
# Description: SANGER: Inhibition of human TE-12 cell growth in a cell viability assay.
row,Compound,IC50 [µM]
1,COc1cc2ncn(-c3cc(OCc4ccccc4S(C)(=O)=O)c(C#N)s3)c2cc1OC [GSK-319347A],> 5

# System: TE-8;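 note: growth inhibition of TE-8 cells, measured with a cell viability readout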
# Assay: cells
# Format: functional, cell-based, Homo sapiens
# Details: Homo sapiens, TE-8
# Description: SANGER: Inhibition of human TE-8 cell growth in a cell viability assay.
row,Compound,IC50 [µM]
1,COc1cc2ncn(-c3cc(OCc4ccccc4S(C)(=O)=O)c(C#N)s3)c2cc1OC [GSK-319347A],> 5

# System: TGBC1TKB;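 note: growth inhibition of TGBC1TKB cells, read out by a cell viability assay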
# Assay: cells
# Format: functional, cell-based, Homo sapiens
# Details: Homo sapiens, TGBC1TKB
# Description: SANGER: Inhibition of human TGBC1TKB cell growth in a cell viability assay.
row,Compound,IC50 [µM]
1,COc1cc2ncn(-c3cc(OCc4ccccc4S(C)(=O)=O)c(C#N)s3)c2cc1OC [GSK-319347A],> 5

# System: U-266
# Assay: cells
# Format: functional, cell-based, Homo sapiens
# Details: Homo sapiens, U-266
# Description: SANGER: Inhibition of human U-266 cell growth in a cell viability assay.
row,Compound,IC50 [µM]
1,COc1cc2ncn(-c3cc(OCc4ccccc4S(C)(=O)=O)c(C#N)s3)c2cc1OC [GSK-319347A],> 5

# System: VA-ES-BJ;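 note: growth inhibition of the VA-ES-BJ cell line, read out by a cell viability assay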
# Assay: cells
# Format: functional, cell-based, Homo sapiens
# Details: Homo sapiens, VA-ES-BJ
# Description: SANGER: Inhibition of human VA-ES-BJ cell growth in a cell viability assay.
row,Compound,IC50 [µM]
1,COc1cc2ncn(-c3cc(OCc4ccccc4S(C)(=O)=O)c(C#N)s3)c2cc1OC [GSK-319347A],> 5

# System: no-11;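 note: growth inhibition of human NO-11 cells, read out with a cell viability assay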
# Assay: cells
# Format: functional, cell-based, Homo sapiens
# Details: Homo sapiens
# Description: SANGER: Inhibition of human no-11 cell growth in a cell viability assay.
row,Compound,IC50 [µM]
1,COc1cc2ncn(-c3cc(OCc4ccccc4S(C)(=O)=O)c(C#N)s3)c2cc1OC [GSK-319347A],> 5

# System: CCRF-CEM;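 note: inhibition of CCRF-CEM cell growth, measured by a cell viability assay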
# Assay: cells
# Format: functional, cell-based, Homo sapiens
# Details: Homo sapiens, CCRF-CEM
# Description: SANGER: Inhibition of human CCRF-CEM cell growth in a cell viability assay.
row,Compound,IC50 [µM]
1,COc1cc2ncn(-c3cc(OCc4ccccc4S(C)(=O)=O)c(C#N)s3)c2cc1OC [GSK-319347A],> 5

# System: COLO-668
# Assay: cells
# Format: functional, cell-based, Homo sapiens
# Details: Homo sapiens, COLO-668
# Description: SANGER: Inhibition of human COLO-668 cell growth in a cell viability assay.
row,Compound,IC50 [µM]
1,COc1cc2ncn(-c3cc(OCc4ccccc4S(C)(=O)=O)c(C#N)s3)c2cc1OC [GSK-319347A],> 5

# System: COLO-684
# Assay: cells
# Format: functional, cell-based, Homo sapiens
# Details: Homo sapiens, COLO-684
# Description: SANGER: Inhibition of human COLO-684 cell growth in a cell viability assay.
row,Compound,IC50 [µM]
1,COc1cc2ncn(-c3cc(OCc4ccccc4S(C)(=O)=O)c(C#N)s3)c2cc1OC [GSK-319347A],> 5
